We go through one compound from patent publication US4163780A (Kirin-Seagram Limited, priority 1977, dated 1979).

The test system of this assay is influenza A2 -Kumamoto/Y5 (H2 N2) virus. It counts as in vivo, influenza virus; DDI mice. As to conditions: Virazole 50 mg/kg, intraperitoneal, 15 times.

Where only a bound is given, the exact number is not on record here.

`NC(=O)c1ncn([C@@H]2O[C@H](CO)[C@@H](O)[C@H]2O)n1` [Virazole]: the “Average of survival days” value is reported as greater than 16.9 days and the Survival percentage is 30%.
